According to PMC11480993, “Combining Data-Driven and Structure-Based Approaches in Designing Dual PARP1-BRD4 Inhibitors for Breast Cancer Treatment” (Journal of Chemical Information and Modeling, 2024):
Read-outs that look alike come from different tables or passages of the source.

Tests used:
E2F2 = test: Western blot, E2F2 in MCF-7 cells; type: cell-based; conditions: MCF-7, 48 h
Description: (§1) Following a 48 h treatment, cellular proteins were extracted using RIPA cell lysis buffer containing protease and phosphatase inhibitor cocktail. The protein concentration was assessed by using a BCA assay. Subsequently, equal amounts of these proteins were loaded onto an SDS-PAGE gel and transferred onto a PVDF membrane. The protein-loaded membrane was then blocked using a commercial blocking solution (Beyotime, China) and sequentially incubated with primary and secondary antibodies. Protein bands were visualized using an ECL chemiluminescence kit and quantified using ImageJ software.

Bcl-2 = test: Western blot, Bcl-2 in MCF-7 cells; type: cell-based; conditions: MCF-7, 48 h, dose-dependent
Description: as §1

[1] = tested on: HEK293T (human embryonic kidney cell); test: Cytotoxicity against non-tumor cells, HEK293T; type: cell-based; conditions: HEK-293T, 96 h, 4-day treatment
Source text: (§2) To further establish HF4’s advantage, we employed a web-based in silico cytotoxicity prediction tool (https://www.way2drug.com/clc-pred/index.php), encompassing the prediction against 391 tumor and 47 normal human cell lines,[47] to predict the cytotoxicity of HF4 against nontumor cell lines. […] The absence of nontumor cell lines among the top-ranked ones indicates a limited impact on normal cell line. When threshold of ≥0.15 was applied, among 50 predictions, only a single normal cell line (HEK293) was present in the list, with a predicted probability value below 0.2. We further reinforced the safety profile of HF4 by conducting experimental safety assessments on two normal cell lines. […] In summary, we conducted both computational safety predictions and experimental evaluations on normal cell lines to strengthen the assurance of HF4’s safety profile.
(§3) Cytotoxicity of HF4 against non-tumor cells
(§4) Figure S6. Cytotoxicity of HF4 against non-tumor cells during a 4-day treatment.
(§5) (1 picture or pasted object on this page, not shown here)

MCF-7 cells [2] = test: Cell apoptosis detection (Annexin V-FITC/PI flow cytometry); type: cell-based; conditions: 2 μM, MCF-7, dose-dependent
Description: Cell apoptosis was assessed using the Annexin V-FITC/PI apoptosis detection kit. Following a 24 h treatment, cells were harvested and rinsed with PBS. Subsequently, the gathered cells were stained in accordance with the manufacturer’s guidelines and analyzed using BD FACSCelesta flow cytometry (New York, USA). FlowJo_V10 software was employed for data analysis.

BRD4 [3] = test: Western blot, BRD4 expression in MCF-7 cells; type: cell-based; conditions: MCF-7, 48 h treatment
Description: as §1

BRD1 = BRD1 (Homo sapiens, UniProt O95696); test: BRD TR-FRET assay, BRD1; type: binding
Description: (§6) The assay was performed by TR-FRET technology using a BRD and its corresponding ligand (BET). The TR-FRET signal from the assay is correlated with the amount of ligand binding to the bromodomain. All of the binding reactions were conducted at room temperature. The 20 μL reaction mixture in Assay Buffer contains either bromodomains, BET Ligand, and the indicated amount of inhibitor. For the negative control (blank), 5 μL of the assay buffer was added instead of the BET ligand. The reaction mixture was incubated for 120 min. After the incubation with the ligand, the TR-FRET signal was measured using a Tecan Infinite M1000 plate reader.

MCF-7 cells [4] = test: Alkaline comet assay; type: cell-based; conditions: 4 and 8 μM, 48 h, MCF-7, compared to control
Description: The Alkaline comet assay was executed in accordance with the manufacturer’s instructions. Following a 48 h treatment period, cells were harvested and combined with low melting point agarose. The resulting mixture was layered onto slides coated with agarose as a normal melting point agarose. Subsequently, the cells on the slides were lysed overnight at 4 °C and then unwound in an alkaline unwinding solution for 30 min at room temperature. Following electrophoresis, the samples were neutralized and stained with propidium iodide. The outcomes were visualized using a confocal microscope (Nikon A1 HD25), with three random images captured from each slide.

MDA-MB-231 cells = test: Cell viability (MTT), MDA-MB-231; type: cell-based; conditions: Homo sapiens, MDA-MB-231, 96 h; 4-day treatment, wild-type BRCA
Description: (§7) MDA-MB-231, MDA-MB-436, and MCF-7 cells were seeded into 96-well plates with the number of 5 × 10^3 in each cell and allowed to incubate for 24 h. Subsequently, various concentrations of the test compounds (ranging from 100 to 0.78 μM with twice gradient dilution) were introduced. After 4 days of incubation, MTT solution was applied, and the cells were incubated for an additional 4 h. Following the removal of the supernatant, the violet crystals were dissolved in 200 μL of DMSO, and the absorbance was measured at 570 nm.

MDA-MB-436 cells = test: Cell viability (MTT), MDA-MB-436; type: cell-based; conditions: Homo sapiens, MDA-MB-436, 96 h; 4-day treatment, BRCA mutant
Description: as §7

PARP1 = test: Western blot, PARP1 expression in MCF-7 cells; type: cell-based; conditions: MCF-7, 48 h treatment
Description: as §1

[5] = tested on: L02 (normal human liver cell); test: Cytotoxicity against non-tumor cells, L02; type: cell-based; conditions: 96 h, 4-day treatment
Source text: as §2, §3, §4, §5

BRD2 = BRD2 (Homo sapiens, UniProt P25440); test: BRD TR-FRET assay, BRD2; type: binding
Description: as §6

MCF-7 cells [6] = test: Cell cycle detection (PI flow cytometry); type: cell-based; conditions: for cell cycle G0/G1 / cell cycle G2/M / cell cycle S: 24 h
Description: Cell cycle analysis was performed using a PI cell cycle detection kit. Following a 24 h treatment, cells were gathered, fixed with 75% ethanol, and stained with PI according to the manufacturer’s protocol. Subsequently, cell cycle analysis was detected using BD FACSCelesta flow cytometry (New York, USA). The obtained data were then subjected to analysis using FlowJo_V10.

BRD4 [7] = molecular target: BRD4 (Homo sapiens, UniProt O60885); test: BRD TR-FRET assay, BRD4; type: binding
Description: as §6

CDK6 = test: Western blot, CDK6 in MCF-7 cells; type: cell-based; conditions: MCF-7, 48 h
Description: as §1

BRD4 BD1 = BRD4 BD1 (Homo sapiens, UniProt O60885); test: BRD TR-FRET assay, BRD4 BD1; type: binding
Description: as §6

γH2AX = test: Western blot, γH2AX in MCF-7 cells; type: cell-based; conditions: MCF-7, 48 h
Description: as §1

Sequence of BRD1 (O95696 whole entry): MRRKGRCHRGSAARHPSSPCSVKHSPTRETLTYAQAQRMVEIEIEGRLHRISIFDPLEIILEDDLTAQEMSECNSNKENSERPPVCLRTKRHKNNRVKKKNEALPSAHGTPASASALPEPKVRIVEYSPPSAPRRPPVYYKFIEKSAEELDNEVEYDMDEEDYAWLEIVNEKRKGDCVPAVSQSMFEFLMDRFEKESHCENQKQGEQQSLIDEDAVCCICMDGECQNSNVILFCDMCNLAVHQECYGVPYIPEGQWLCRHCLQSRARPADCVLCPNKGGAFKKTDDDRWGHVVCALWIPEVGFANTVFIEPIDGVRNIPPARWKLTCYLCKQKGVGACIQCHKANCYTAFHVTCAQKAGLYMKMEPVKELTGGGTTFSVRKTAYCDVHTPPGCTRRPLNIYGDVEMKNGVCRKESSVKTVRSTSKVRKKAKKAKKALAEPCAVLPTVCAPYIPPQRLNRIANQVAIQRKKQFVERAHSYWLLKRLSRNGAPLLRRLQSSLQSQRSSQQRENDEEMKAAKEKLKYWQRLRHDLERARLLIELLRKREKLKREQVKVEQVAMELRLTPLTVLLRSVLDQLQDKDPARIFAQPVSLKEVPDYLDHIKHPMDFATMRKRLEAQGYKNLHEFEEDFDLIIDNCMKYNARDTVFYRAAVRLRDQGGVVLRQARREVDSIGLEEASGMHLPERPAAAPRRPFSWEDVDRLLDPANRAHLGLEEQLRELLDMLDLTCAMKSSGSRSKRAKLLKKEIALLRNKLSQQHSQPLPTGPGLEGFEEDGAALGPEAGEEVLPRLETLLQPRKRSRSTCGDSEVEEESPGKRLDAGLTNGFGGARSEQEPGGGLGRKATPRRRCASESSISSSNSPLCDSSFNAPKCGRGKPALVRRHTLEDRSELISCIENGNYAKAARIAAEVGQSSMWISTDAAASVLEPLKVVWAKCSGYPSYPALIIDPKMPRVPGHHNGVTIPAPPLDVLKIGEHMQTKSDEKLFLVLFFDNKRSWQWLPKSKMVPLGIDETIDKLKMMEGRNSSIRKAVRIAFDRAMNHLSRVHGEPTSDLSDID
Sequence of BRD2 (P25440 whole entry): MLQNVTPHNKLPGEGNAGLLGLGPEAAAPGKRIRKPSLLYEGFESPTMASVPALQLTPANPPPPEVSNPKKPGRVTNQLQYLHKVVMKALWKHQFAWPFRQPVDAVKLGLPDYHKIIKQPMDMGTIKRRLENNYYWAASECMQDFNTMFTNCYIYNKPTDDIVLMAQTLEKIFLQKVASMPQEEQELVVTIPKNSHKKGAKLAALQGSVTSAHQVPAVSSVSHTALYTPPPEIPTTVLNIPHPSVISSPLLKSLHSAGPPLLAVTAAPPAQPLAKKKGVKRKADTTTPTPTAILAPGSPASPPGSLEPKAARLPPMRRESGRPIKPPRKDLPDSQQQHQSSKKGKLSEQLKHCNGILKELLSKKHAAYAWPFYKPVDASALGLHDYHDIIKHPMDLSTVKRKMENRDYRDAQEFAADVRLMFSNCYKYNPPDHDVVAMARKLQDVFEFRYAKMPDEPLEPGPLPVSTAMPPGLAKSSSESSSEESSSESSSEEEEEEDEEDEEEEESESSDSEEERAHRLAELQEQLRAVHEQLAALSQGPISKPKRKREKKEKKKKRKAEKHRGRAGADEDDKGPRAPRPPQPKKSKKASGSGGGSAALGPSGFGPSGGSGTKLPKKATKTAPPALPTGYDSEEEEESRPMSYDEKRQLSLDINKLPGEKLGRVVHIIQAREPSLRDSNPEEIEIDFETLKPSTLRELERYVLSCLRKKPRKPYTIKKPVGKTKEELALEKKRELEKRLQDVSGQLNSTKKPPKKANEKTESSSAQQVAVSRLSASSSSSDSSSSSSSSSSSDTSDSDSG

For CCc1cc2cc(NS(=O)(=O)c3ccc(F)c(C)c3)ccc2[nH]c1=O [HF4, N-(3-ethyl-2-oxo-1,2-dihydroquinolin-6-yl)-4-fluoro-3-methylbenzenesulfonamide], the E2F2 expression (E2F2) was “suppressed”, the Bcl-2 expression (Bcl-2) was “significantly downregulated” and the IC50 [1] was 21.5 ± 7.4 µM. For the same compound, the apoptotic cells (MCF-7 cells [2]) was “substantial increase in apoptotic cells”, the BRD4 expression (BRD4 [3]) was “an increase but to a much lesser extent than JQ1” and the IC50 (BRD1) was 55.6 ± 13.9 µM. The “DNA damage (comet tail length, percentage of damaged DNA)” value (MCF-7 cells [4]) was “increase in both tail length and the percentage of damaged DNA”, the IC50 (MDA-MB-231 cells) was 2.2 µM and the IC50 (MDA-MB-436 cells) was 4.9 µM. The PARP1 expression (PARP1) was “limited effect”, the IC50 [5] was 26.3 ± 6.2 µM and the IC50 (BRD2) was 6.83 ± 2.2 µM. The “effect on cell cycle” value (MCF-7 cells [6]) was “halted the cell cycle at the G0/G1 phase”, the “cell cycle G0/G1” value (MCF-7 cells [6]; 2 μM) was 83.0% and the “cell cycle G2/M” value (MCF-7 cells [6]; 2 μM) was 0.51%. For the same compound, the “cell cycle S” value (MCF-7 cells [6]; 2 μM) was 17.0%, the “cell cycle G0/G1” value (MCF-7 cells [6]; 4 μM) was 89.0% and the “cell cycle G2/M” value (MCF-7 cells [6]; 4 μM) was 2.96%. The “cell cycle S” value (MCF-7 cells [6]; 4 μM) was 9.42%, the “cell cycle G0/G1” value (MCF-7 cells [6]; 8 μM) was 92.0% and the “cell cycle G2/M” value (MCF-7 cells [6]; 8 μM) was 4.55%. The “cell cycle S” value (MCF-7 cells [6]; 8 μM) was 7.63%, the IC50 (BRD4 [7]) was 1.21 ± 0.324 µM and the “ligand efficiency index against BRD4” value (BRD4 [7]; pIC50 divided by HAC, HAC = 25) was 0.24. The IC50 (BRD4 [7]; value of the text) was 1.2 µM, the “reduction in capacity to inhibit BRD4 relative to PFI-1” value (BRD4 [7]; vs PFI-1) was “around 5 fold” and the CDK6 expression (CDK6) was “dose-dependently lowered”. For the same compound, the IC50 (BRD4 BD1) was 0.204 ± 0.068 µM, the “selectivity BRD4 BD1 over BRD4 BD2” value (BRD4 BD1; IC50 BD1 vs BD2) was “four times more potent” and the “levels of γH2AX” value (γH2AX) was “dose-dependent upregulation”.
